The values that follow come from US20160257928A1, “Method for producing pluripotent stem cell having improved chimera forming ability from primed pluripotent stem cell, and composition and combination therefor” (The University of Tokyo, priority 2015, published 2016).

In one experiment the test system is Wnt/β catenin signal. Nature of the experiment: Western blotting of β catenin in cytoplasmic and nuclear fractions. The class given is cell-based, mouse. The note with it: EB3DR-EpiSC; for inhibition of Wnt/β catenin signal: Western blotting (FIG. 4 (A)). As for the experimental part:
First, in order to confirm the effect of IWP-2 on a Wnt/β catenin signal inhibition, the amount of protein in β catenin was checked by Western blotting. The EB3DR-EpiSC was cultured under the aforementioned culturing conditions, IWP-2 (at a final concentration of 5 nM) was added thereto, and the resultant was cultured for another 2 days. As a control, the same amount of DMSO was added instead of IWP-2. Next, Nuclear/Cytosol Fractionation Kit (Bio Vision, manufactured by Mountain View, Calif.) was used in accordance with the manufacturer's manual to separate a cytoplasmic fraction and a nuclear fraction. Each of these fractions thus obtained was dissolved in Laemmli Sample Buffer (Bio-Rad, manufactured by Hercules, Calif.) to perform SDS-PAGE. A protein separated by the SDS-PAGE was blotted on a PVDF transfer membrane (manufactured by Millipore Corporation) to perform a primary antibody reaction.
As a primary antibody, an anti-β catenin antibody (#9562, 1:1000), an anti-(β-actin antibody (#3770, 1:1000), or an anti-histone H3 antibody (#4499, 1:2000) purchased from Cell Signaling Technology Inc. was used. As a secondary antibody, for the anti-β catenin antibody or the anti-histone H3 antibody, an anti-rabbit IgG Horseradish peroxidase-conjugated antibody (NA934V, 1:100, manufactured by GE Healthcare UK, Little Chalfont, UK) was used for the reaction, and for the anti-β-actin antibody, an anti-mouse IgG Horseradish peroxidase-conjugated antibody (NA931V, 1:1000, manufactured by GE Healthcare UK, Little Chalfont, UK) was used for the reaction, and then a band bonded to the secondary antibody was detected by SuperSignal West Pico Chemiluminescent Substrate (manufactured by Thermo Fisher Scientific Inc., Rockford, Ill.). As a result, it was confirmed that the amount of β catenin was reduced in the nuclear fraction by IWP-2 and that a Wnt/β catenin signal was thus inhibited (see FIG. 4, (A)).
On the technique in general: Immunoblotting shows a protein as a band on a membrane.

Experiment [1] concerns EB3DR-EpiSC. Nature of the experiment: Naive pluripotent stem cell-like colony formation of EpiSC. The experiment is classed as cell-based, mouse. As for the experimental part:
The EB3DR-EpiSC was cultured in N2B27 medium (Ying et al., Nature (2008), 435, 519-523) supplemented with 1,000 U/mL of mouse LIF and 1 μM of PD0325901 (manufactured by Axon, Groeningen, The Netherlands). To the resultant, 5 nM of IWP-2 (manufactured by Wako Pure Chemical Industries, Ltd., Osaka, Japan) was added, or CHIR known as an inhibitor of GSK3β or the same amount of DMSO was added instead of IWP-2, so as to check the influence on the EB3DR-EpiSC.
(§1) The naive-like colony formation and the chimera formation were checked in the same manner as described above except that XAV939 (manufactured by Sigma-Aldrich, S. Louis, Mo., USA) was used as the Wnt/β catenin signal inhibitor instead of IWP-2.

The subject of experiment [2] is EB3DR-EpiSC. Nature of the experiment: CD31 (PECAM-1) expression by FACS. The class given is cell-based, mouse. The note with it: for expression of CD31 (CD31 positive cell frequency): in the presence of LIF. As for the experimental part:
Next, the expression of CD31 (PECAM-1) in these cells was analyzed. The expression level of CD31 was checked by the FACS by using an APC labeled rat anti-mouse CD31 antibody (manufactured by eBioscience, 17-0311). […] When a colony of the CD31 expressing cell was cloned and subcultured, a mouse ES cell-like morphology was obtained (see FIG. 4, (G)), and such a cell could be subcultured continuously for a long period of time similarly to a mouse ES cell. Since the cell was derived from the EB3DR-EpiSC, DsRed was expressed therein (see FIG. 4, (H)).
as §1
On the technique in general: Flow cytometry measures light scatter and fluorescence of single cells or particles in a stream.

The subject of experiment [3] is EB3DR-EpiSC. Nature of the experiment: Chimera forming ability after injection into mouse blastocyst. The class given is in vivo. To be noted: EpiSC treated with LIF and the inhibitor, about 10 cells injected per embryo. As for the experimental part: Furthermore, the chimera forming ability of the EB3DR-EpiSC treated with LIF and IWP-2 was checked. Specifically, the embryo of a BDF1 (C57BL6/N; DBA1 F1) mouse was cultured in Medium 2 (manufactured by Millipore Corporation) to the eight-cell stage or morula stage. The resultant embryo was transferred to KSOM medium (manufactured by Millipore Corporation) and cultured for 24 hours to be developed to the blastocyst stage. For the injection into an embryo, the cell was dissociated into a single cell by a trypsin treatment, and the resultant was suspended in a medium. A zona pellucida was perforated under a microscope by using a piezoelectric micromanipulator, and a chimeric embryo was produced by injecting approximately 10 cells into a space below the zona pellucida in each embryo. After the injection, the embryo was cultured in KSOM medium until a blastomere was obtained, and then, the resultant was transplanted into the uterus of a pseudopregnant ICR recipient female mouse. The chimera formation was checked on the basis of the color of a fur. A cell derived from BDF1×C57BL/6 grows a black fur, and a cell derived from 129/Ola grows a brown (agouti-colored) fur. […]

The next experiment has as its system STAT3 signal. Briefly: Western blotting of phosphorylated STAT3. The experiment is classed as cell-based, mouse. The note with it: EB3DR-EpiSC, 2nd day after stimulation. From the text:
Besides, the EB3DR-EpiSC was stimulated with LIF, the resultant cell was collected on the 2nd day after stimulation, and the activation of a STAT3 signal was checked by the Western blotting. The activation of a STAT3 signal was checked on the basis of the presence of phosphorylated STAT3. The phosphorylated STAT3 was detected by using, as a primary antibody, an anti-P-STAT3 antibody (#9145, 1:2000, manufactured by Cell Signaling Technology Inc.) […] specifically recognizing phosphorylated STAT3.

In another experiment the test system is EB3DR-EpiSC-TRE-Cdh1. Briefly: CD31 expression by FACS in E-cadherin induced EpiSC. The class given is cell-based, mouse. To be noted: 7 days, with forced expression of E-cadherin (Dox(+), 10 μg/mL doxycycline). The protocol:
The EB3DR-EpiSC-TRE-Cdh1 was cultured for 7 days in the presence of a basic fibroblast growth factor (bFGF) or LIF in a usual medium (Dox(−)) or a medium supplemented with 10 μg/mL of doxycycline (Dox(+)), and the resultant cell was dissociated with a trypsin/EDTA solution and stained with an APC labeled anti-mouse CD31 antibody to be analyzed by using the FACS.

Regarding `O=c1[nH]c(-c2ccc(C(F)(F)F)cc2)nc2c1CSCC2` [XAV939, 3,5,7,8-tetrahydro-2-[4-(trifluoromethyl)phenyl]-4H-thiopyrano[4,3-d]pyrimidine-4-one], the “inhibition of Wnt/β catenin signal” value in the experiment with Wnt/β catenin signal is listed as “work as an inhibitor of a Wnt/β catenin signal”. Further, the “naive-like colony formation on the 7th day after treatment” value with EB3DR-EpiSC [1] (LIF used in combination) is recorded as “formed a naive-like colony”. Moreover, in the experiment on EB3DR-EpiSC [2] (LIF used in combination), the “proportion of the CD31 (PECAM-1) positive cell on the 7th day after treatment” value is “remarkably increased”. The “expression of CD31 (CD31 positive cell frequency)” value with EB3DR-EpiSC [2] was “observed at a high frequency”. Also, in the experiment with EB3DR-EpiSC [3], the “chimera formation (production of a chimeric animal)” value is on record as “a chimeric animal was produced”. In the experiment on STAT3 signal, the “activation of a STAT3 signal (presence of phosphorylated STAT3)” value was “also observed”.

Take “bFGF: basic fibroblast growth factor, culture medium supplement”: the “CD31 (Pecam1) positive cell proportion” value with EB3DR-EpiSC-TRE-Cdh1 is recorded as “the level was merely restrictive”.

With `Cc1ccc2nc(NC(=O)CSc3nc4c(c(=O)n3-c3ccccc3)SCC4)sc2c1` [IWP-2, N-(6-methyl-2-benzothiazolyl)-2-[(3,4,6,7-tetrahydro-4-oxo-3-phenylthieno[3,2-d]pyrimidine-2-yl)thio]-acetamide], the “inhibition of Wnt/β catenin signal” value with Wnt/β catenin signal is on record as “inhibited”. Further, the “amount of β catenin in the nuclear fraction” value in the experiment with Wnt/β catenin signal (final concentration 5 nM, 2 days, vs DMSO) is on record as “reduced”. Besides, the “appearance of a colony corresponding to a naive pluripotent stem cell-like morphology, time after culture” value in the experiment on EB3DR-EpiSC [1] (N2B27 medium with 1,000 U/mL mouse LIF and 1 μM PD0325901, 5 nM IWP-2) was at most 7 days. Besides, the “appearance frequency of a colony characteristic to the naive pluripotent stem cell on the 14th day after culture” value with EB3DR-EpiSC [1] (N2B27 medium with LIF and PD0325901, 5 nM IWP-2, vs CHIR or DMSO) was “significantly increased”. The “expression of CD31 (CD31 positive cell frequency)” value in the experiment on EB3DR-EpiSC [2] is on record as “expressed at a high frequency in a short period of time”. For the same molecule, the “chimera formation (production of a chimeric animal)” value with EB3DR-EpiSC [3] is recorded as “confirmed, based on the fur color, as a chimeric mouse”. Further, the “activation of a STAT3 signal (presence of phosphorylated STAT3)” value in the experiment on STAT3 signal is given as “also observed”.
